One series relates to Pyricularia oryzae. The series can be described thus: microbe, parasite or virus in culture. The series is classed as cell-based. As to conditions: read-out: MIC (Minimum Inhibitory Concentration).

Molecules are shown by their SMILES. Values after ≈ are worked out from the molar mass of the structure shown.

As a reminder, the melting point is the temperature, or range, at which the solid turns liquid. Take `CCN(CC)c1c(-c2c(F)cc(F)cc2F)c(Cl)nc2ccnn12`: the melting point came to 90 °C. Still for that read-out and setting: as for `Fc1cc(F)c(-c2c(Cl)nc3ccnn3c2NC2CCCC2)c(F)c1`, the figure is 128 °C. On the same count and under the same terms, as for `CC(C)Nc1c(-c2c(F)cc(F)cc2F)c(Cl)nc2ccnn12`, the figure is 143 °C; as for `CC(C)N(C)c1c(-c2c(F)cc(F)cc2F)c(Cl)nc2ccnn12`, 109 °C. On to `Fc1cc(F)c(-c2c(Cl)nc3ccnn3c2NCC(F)(F)F)c(F)c1` [Example I-7, [5-chloro-6-(2,4,6-trifluoro-phenyl)-pyrazolo[1,5-α]pyrimidin-7-yl]-(2,2,2-trifluoro-ethyl)-amine], for which the MIC in the series on Pyricularia oryzae is 0.78 µg/mL (≈ 2.05 µM).

Source of the values: patent publication US6730680B2 (priority 1999, dated 2004).
